{"source": "patent US4265830A", "about": "“Naphthalenetetrayletrakis(sulfonylimino)-aryl disulfonic acids and salts thereof” (priority 1979, dated 1981)", "key": {"activated human C1": {"target": "T1, activated human C1 (Homo sapiens, UniProt P09871)", "T1 sequence (P09871 16-437 limits assumed)": "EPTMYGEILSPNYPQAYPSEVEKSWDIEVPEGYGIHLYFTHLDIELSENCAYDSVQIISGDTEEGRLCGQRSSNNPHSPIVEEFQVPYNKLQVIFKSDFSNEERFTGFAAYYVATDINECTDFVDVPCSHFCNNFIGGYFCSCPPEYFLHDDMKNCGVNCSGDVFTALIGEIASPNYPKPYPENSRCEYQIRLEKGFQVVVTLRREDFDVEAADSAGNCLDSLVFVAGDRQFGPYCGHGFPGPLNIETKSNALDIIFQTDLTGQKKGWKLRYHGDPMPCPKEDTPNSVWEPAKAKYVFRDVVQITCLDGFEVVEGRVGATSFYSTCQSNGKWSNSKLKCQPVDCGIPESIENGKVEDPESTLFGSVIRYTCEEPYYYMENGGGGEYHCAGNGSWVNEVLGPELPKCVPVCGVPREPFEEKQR", "T1 sequence (P09871 438-688 limits assumed)": "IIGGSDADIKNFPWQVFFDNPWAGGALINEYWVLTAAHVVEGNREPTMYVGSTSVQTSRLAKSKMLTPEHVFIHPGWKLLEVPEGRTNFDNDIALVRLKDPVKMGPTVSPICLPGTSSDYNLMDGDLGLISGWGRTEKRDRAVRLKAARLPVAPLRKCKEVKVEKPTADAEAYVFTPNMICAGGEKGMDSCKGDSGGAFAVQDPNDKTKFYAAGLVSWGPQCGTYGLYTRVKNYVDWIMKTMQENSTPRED", "test": "Test Code 026 (C1 inhibitor)", "assay_type": "biochemical", "conditions": "activity in wells, twofold serial dilution assay; higher well number indicates higher activity", "description": "(§1) An active inhibitor protects C2 from C1 and C4; (ii) Test Code 035 (C3-C9 inhibitor)--This test determines the ability of the late components of human complement (C3-C9) to lyse EAC 142 in the presence of appropriate dilutions of the test compound. An active inhibitor protects EAC 142 from lysis by human C3-C9; (iii) Test Code 036 (C-Shunt inhibitor)--In this test human erythrocytes rendered fragile are lysed in autologous serum via the shunt pathway activated by cobra venom factor in the presence of appropriate dilutions of the test compound. Inhibition of the shunt pathway results in failure of lysis; (iv) Forssman Vasculitis Test--Here, the well known complement dependent lesion, Forssman vasculitis, is produced in guinea pigs by intradermal injection of rabbit anti-Forssman antiserum. […] Percent inhibition is calculated by comparison with simultaneous controls. […]"}, "[1]": {"test_system": "late components of human complement (C3-C9)", "test": "Test Code 035 (C3-C9 inhibitor), lysis of EAC 142", "assay_type": "biochemical", "conditions": "activity in wells, twofold serial dilution assay; higher well number indicates higher activity", "description": "as §1"}, "complement activity": {"test_system": "complement activity", "test": "Guinea Pig Intraperitoneal Test (GPIP), serum complement activity", "assay_type": "in vivo", "conditions": "Cavia porcellus, ip, 200 mg./kg. i.p., vs simultaneous controls", "description": "An active inhibitor protects C2 from C1 and C4; (ii) Test Code 035 (C3-C9 inhibitor)--This test determines the ability of the late components of human complement (C3-C9) to lyse EAC 142 in the presence of appropriate dilutions of the test compound. An active inhibitor protects EAC 142 from lysis by human C3-C9; (iii) Test Code 036 (C-Shunt inhibitor)--In this test human erythrocytes rendered fragile are lysed in autologous serum via the shunt pathway activated by cobra venom factor in the presence of appropriate dilutions of the test compound. Inhibition of the shunt pathway results in failure of lysis; (iv) Forssman Vasculitis Test--Here, the well known complement dependent lesion, Forssman vasculitis, is produced in guinea pigs by intradermal injection of rabbit anti-Forssman antiserum. The lesion is measured in terms of diameter, edema and hemorrhage and the extent to which a combined index of these is inhibited by prior intraperitoneal injection of the test compound at 200 mg./kg. is then reported, unless otherwise stated; (v) Forssman Shock Test--Lethal shock is produced in guinea pigs by an i.v. injection of anti-Forssman antiserum and the harmonic mean death time of treated guinea pigs is compared with that of simultaneous controls; (vi) Complement Level Reduction Test--In this test, the above dosed guinea pigs, or others, are bled for serum and the complement level is determined in undiluted serum by the capillary tube method of U.S. Pat. No. 3,876,376 and compared to undosed control guinea pigs; (vii) Cap 50 Test--Here, appropriate amounts of the test compound are added to a pool of guinea pig serum in vitro, after which the undiluted serum capillary tube assay referred to above is run. The concentration of compound inhibiting 50% is reported; (viii) Guinea Pig Intraperitoneal Test (GPIP)--Guinea Pigs weighing about 300 g. are dosed intraperitoneally (i.p.) with 200 mg./kg. of the test compound dissolved in saline and adjusted to pH 7-8. […] Percent inhibition is calculated by comparison with simultaneous controls. […]"}, "shunt pathway": {"test_system": "shunt pathway", "test": "Test Code 036 (C-Shunt inhibitor), lysis of human erythrocytes in autologous serum activated by cobra venom factor", "assay_type": "cell-based", "conditions": "activity in wells, twofold serial dilution assay; higher well number indicates higher activity", "description": "as §1"}}, "note": "Where two headings read alike, the source gives them in different places."}
{"compound": "O=S(=O)([O-])c1cc(NS(=O)(=O)c2cc(S(=O)(=O)Nc3cc(S(=O)(=O)[O-])cc(S(=O)(=O)[O-])c3)c3cc(S(=O)(=O)Nc4cc(S(=O)(=O)[O-])cc(S(=O)(=O)[O-])c4)cc(S(=O)(=O)Nc4cc(S(=O)(=O)[O-])cc(S(=O)(=O)[O-])c4)c3c2)cc(S(=O)(=O)[O-])c1.[Na+].[Na+].[Na+].[Na+].[Na+].[Na+].[Na+].[Na+]", "note": "[5,5',5\",5\"'-[1,3,5,7-Naphthalenetetrayltetrakis(sulfonylimino)]tetrakis-1,3-benzenedisulfonic acid, octasodium salt]", "values": [{"measurement": "Cl 026* Wells", "setting": "activated human C1", "value": "+10 Wells"}, {"measurement": "C-Late 035* Wells", "setting": "[1]", "value": "+1 Wells"}, {"measurement": "inhibition at 200 mg/kg", "setting": "complement activity; 0.5 h, serum 30 minutes after injection, read-out: In Vivo Activity (Guinea Pig) % Inhibition Intraperitoneal, 30 minutes", "value": -62, "unit": "%"}, {"measurement": "inhibition at 200 mg/kg", "setting": "complement activity; 1 h, serum 60 minutes after injection, read-out: In Vivo Activity (Guinea Pig) % Inhibition Intraperitoneal, 60 minutes", "value": -59, "unit": "%"}, {"measurement": "inhibition at 200 mg/kg", "setting": "complement activity; 2 h, serum 120 minutes after injection, read-out: In Vivo Activity (Guinea Pig) % Inhibition Intraperitoneal, 120 minutes", "value": -81, "unit": "%"}, {"measurement": "Shunt Inhibition 036* Wells", "setting": "shunt pathway", "value": "+7 Wells"}]}
